For orientation: EC50 means the concentration at which the effect is half-maximal. Read a low EC50 as a more potent agent.

The target of this assay is GLP-1 Receptor (Homo sapiens, UniProt P43220). The assay can be described thus: GLP-1R agonist cAMP stimulation assay (HEK293/GLP1R/CRE-LUC cells, cAMP dynamic 2 Kit). The format is cell-based. The settings on record: HEK293/CRE-Luc cell line stably expressing the GLP-1 Receptor, 30 min at 37° C. An outline of the steps: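 cAMP measured by HTRF competition (d2-labelled cAMP with cryptate antibody, 1 h, room temperature, protected from light). Before that, GLP1R/CRE-Luc HEK293 cells (1000/well) were exposed for 30 min at 37 °C to half-log compound dilutions in DPBS containing IBMX 0.5 mM and BSA 0.1%.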
GLP-1 Receptor, sequence (P43220 24-463, species assumed): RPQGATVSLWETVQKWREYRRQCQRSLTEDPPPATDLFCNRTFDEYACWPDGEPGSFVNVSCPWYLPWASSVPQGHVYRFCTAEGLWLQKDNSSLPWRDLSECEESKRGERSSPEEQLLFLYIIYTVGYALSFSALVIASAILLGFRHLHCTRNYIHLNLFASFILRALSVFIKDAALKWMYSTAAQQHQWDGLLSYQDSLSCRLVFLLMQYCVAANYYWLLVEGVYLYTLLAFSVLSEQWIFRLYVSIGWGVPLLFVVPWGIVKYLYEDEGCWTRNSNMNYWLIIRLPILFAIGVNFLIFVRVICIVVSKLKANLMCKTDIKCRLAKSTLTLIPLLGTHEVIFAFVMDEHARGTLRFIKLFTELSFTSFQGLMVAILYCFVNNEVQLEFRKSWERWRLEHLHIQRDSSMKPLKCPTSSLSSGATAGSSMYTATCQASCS
In turn, `C[C@]1(c2ccc(Cl)cc2F)Oc2cccc(C3CCN(Cc4nc5cc(-c6nnc(C(F)(F)F)[nH]6)ncc5n4CC4(C#N)CC4)CC3)c2O1` [Compound 345a, 1-{[2-({4-[(2S)-2-(4-chloro-2-fluorophenyl)-2-methyl-2H-1,3-benzodioxol-4-yl]piperidin-1-yl}methyl)-6-[5-(trifluoromethyl)-4H-1,2,4-triazol-3-yl]-3H-imidazo[4,5-c]pyridin-3-yl]methyl}cyclopropane-1-carbonitrile] had a concentration giving a half-maximal response (EC50) of 0.014 nM.

Molecule `Cn1ccc(-c2ccc3c(c2)nc(CN2CCC(c4cccc(OCc5ccc(Cl)cc5F)n4)CC2)n3C[C@@H]2CCO2)n1` [Compound 124a, 2-[(4-{6-[(4-chloro-2-fluorophenyl)methoxy]pyridin-2-yl}piperidin-1-yl)methyl]-5-(1-methyl-1H-pyrazol-3-yl)-1-{[(2S)-oxetan-2-yl]methyl}-1H-1,3-benzodiazole] had an EC50 of 0.78 nM.

`O=C(Nc1ccc2c(c1)nc(CN1CCC(c3cccc(OCc4ccc(Cl)cc4F)n3)CC1)n2C[C@@H]1CCO1)c1ccncc1` [Compound 171a, N-{2-[(4-{6-[(4-chloro-2-fluorophenyl)methoxy]pyridin-2-yl}piperidin-1-yl)methyl]-1-{[(2S)-oxetan-2-yl]methyl}-1H-1,3-benzodiazol-5-yl}pyridine-4-carboxamide] gave an EC50 of 0.27 nM.

For `C[C@]1(c2ccc(Cl)cn2)Oc2cccc(C3CCN(Cc4nc5cc(-c6nnn[nH]6)cnc5n4C[C@@H]4CCO4)CC3)c2O1` [Compound 451a, 5-chloro-2-[(2S)-2-methyl-4-{1-[(3-{[(2S)-oxetan-2-yl]methyl}-6-(1H-1,2,3,4-tetrazol-5-yl)-3H-imidazo[4,5-b]pyridin-2-yl)methyl]piperidin-4-yl}-2H-1,3-benzodioxol-2-yl]pyridine], a half-maximal response (EC50) required 0.21 nM.

Consider `CO[C@@H](C)Cn1c(CN2CCC(c3cccc4c3OC(C)(c3ccc(Cl)cn3)O4)CC2)nc2cc(-c3nnc(C(F)(F)F)[nH]3)ncc21` (stereo partly drawn) [Compound 445a, 5-chloro-2-{4-[1-({3-[(2S)-2-methoxypropyl]-6-[5-(trifluoromethyl)-4H-1,2,4-triazol-3-yl]-3H-imidazo[4,5-c]pyridin-2-yl}methyl)piperidin-4-yl]-2-methyl-2H-1,3-benzodioxol-2-yl}pyridine], for which the EC50 was determined as 2 nM.

Take `O=c1[nH]ccn1-c1ccc2c(c1)nc(CN1CCC(c3cccc(OCc4ccc(Cl)cc4F)n3)CC1)n2C[C@@H]1CCO1` [Compound 122a, 1-{2-[(4-{6-[(4-chloro-2-fluorophenyl)methoxy]pyridin-2-yl}piperidin-1-yl)methyl]-1-{[(2S)-oxetan-2-yl]methyl}-1H-1,3-benzodiazol-5-yl}-2,3-dihydro-1H-imidazol-2-one]: a half-maximal effect (EC50) was put at 2.4 nM. This EC50 and that of the molecule before are within 1.5-fold of each other.

Turning to `Cc1nnc(-c2ccc3c(c2)nc(CN2CCC(c4cccc5c4O[C@@](C)(c4ccc(C#N)cc4F)O5)CC2)n3C[C@@H]2CCO2)[nH]1` [Compound 410a, 3-fluoro-4-[(2S)-2-methyl-4-(1-{[5-(5-methyl-4H-1,2,4-triazol-3-yl)-1-{[(2S)-oxetan-2-yl]methyl}-1H-1,3-benzodiazol-2-yl]methyl}piperidin-4-yl)-2H-1,3-benzodioxol-2-yl]benzonitrile], the response was half-maximal at 0.029 nM (EC50). Against the preceding molecule, the EC50 is about 83-fold lower.

`O=C1NCCN1c1ccc2c(c1)nc(CN1CCC(c3cccc(OCc4ccc(Cl)cc4F)n3)CC1)n2C[C@@H]1CCO1` [Compound 123a, 1-{2-[(4-{6-[(4-chloro-2-fluorophenyl)methoxy]pyridin-2-yl}piperidin-1-yl)methyl]-1-{[(2S)-oxetan-2-yl]methyl}-1H-1,3-benzodiazol-5-yl}imidazolidin-2-one] displayed a 50% effective concentration (EC50) of 4 nM.

In turn, `CC1(c2ccc(C#N)cc2F)Oc2cccc(C3CCN(Cc4nc5cc(-c6nnc(C(F)(F)F)[nH]6)cnc5n4C[C@@H]4CCO4)CC3)c2O1` (stereo partly drawn) [Compound 403a, 3-fluoro-4-(2-methyl-4-{1-[(3-{[(2S)-oxetan-2-yl]methyl}-6-[5-(trifluoromethyl)-4H-1,2,4-triazol-3-yl]-3H-imidazo[4,5-b]pyridin-2-yl)methyl]piperidin-4-yl}-2H-1,3-benzodioxol-2-yl)benzonitrile] registered an EC50 of 0.02 nM.

For `O=C(O)c1ccc2c(c1)nc(CN1CCC(c3cccc(OCc4ccc(Cl)cc4F)n3)CC1)n2C[C@@H]1CCO1` [Compound 213a, 2-[(4-{6-[(4-chloro-2-fluorophenyl)methoxy]pyridin-2-yl}piperidin-1-yl)methyl]-1-{[(2S)-oxetan-2-yl]methyl}-1H-1,3-benzodiazole-5-carboxylic acid], the EC50 was 0.83 nM.

With `C[C@H]1CN(c2ncc(F)c(OCc3ccc(Cl)cc3F)n2)CCN1Cc1nc2cc(-c3nnc(C(F)(F)F)[nH]3)nnc2n1C[C@@H]1CCO1` [Compound 512a, 4-[(4-chloro-2-fluorophenyl)methoxy]-5-fluoro-2-[(3S)-3-methyl-4-[(7-{[(2S)-oxetan-2-yl]methyl}-3-[5-(trifluoromethyl)-4H-1,2,4-triazol-3-yl]-7H-imidazo[4,5-c]pyridazin-6-yl)methyl]piperazin-1-yl]pyrimidine], the EC50 came to 0.14 nM.

`O=C(Nc1ccc2c(c1)nc(CN1CCC(c3cccc(OCc4ccc(Cl)cc4F)n3)CC1)n2C[C@@H]1CCO1)c1ccn2cncc2c1` [Compound 179a, N-{2-[(4-{6-[(4-chloro-2-fluorophenyl)methoxy]pyridin-2-yl}piperidin-1-yl)methyl]-1-{[(2S)-oxetan-2-yl]methyl}-1H-1,3-benzodiazol-5-yl}imidazo[1,5-a]pyridine-7-carboxamide] gave an EC50 of 0.27 nM.

For the molecule `CC1(c2ccc(Cl)cc2)Oc2cccc(C3CCN(Cc4nc5cc(-c6nnc(C(F)(F)F)[nH]6)ccc5n4C[C@@H]4CCO4)CC3)c2O1` (stereo partly drawn) [Compound 226a, 2-({4-[2-(4-chlorophenyl)-2-methyl-2H-1,3-benzodioxol-4-yl]piperidin-1-yl}methyl)-1-{[(2S)-oxetan-2-yl]methyl}-5-[5-(trifluoromethyl)-4H-1,2,4-triazol-3-yl]-1H-1,3-benzodiazole], the EC50 amounted to 0.13 nM.

For `O=c1[nH]c(-c2cc3nc(CN4CCC(c5cccc6c5OC[C@@H](c5ccc(Cl)cc5)O6)CC4)n(C[C@@H]4CCO4)c3cn2)no1` [Compound 422a, 3-[2-({4-[(2R)-2-(4-chlorophenyl)-2,3-dihydro-1,4-benzodioxin-5-yl]piperidin-1-yl}methyl)-3-{[(2S)-oxetan-2-yl]methyl}-3H-imidazo[4,5-c]pyridin-6-yl]-4,5-dihydro-1,2,4-oxadiazol-5-one], the midpoint of the response, the EC50, lay at 0.17 nM.

The molecule `O=C(Nc1ccc2c(c1)nc(CN1CCC(c3cccc(OCc4ccc(Cl)cc4F)n3)CC1)n2C[C@@H]1CCO1)C1CC(F)(F)C1` [Compound 152a, N-{2-[(4-{6-[(4-chloro-2-fluorophenyl)methoxy]pyridin-2-yl}piperidin-1-yl)methyl]-1-{[(2S)-oxetan-2-yl]methyl}-1H-1,3-benzodiazol-5-yl}-3,3-difluorocyclobutane-1-carboxamide] yielded an EC50 of 0.88 nM.

The molecule `C[C@]1(c2ccc(Cl)cc2F)Oc2cccc(C3CCN(Cc4nc5cc(C(N)=O)nnc5n4C[C@@H]4CCO4)CC3)c2O1` [Compound 432a, 6-({4-[(2S)-2-(4-chloro-2-fluorophenyl)-2-methyl-2H-1,3-benzodioxol-4-yl]piperidin-1-yl}methyl)-7-{[(2S)-oxetan-2-yl]methyl}-7H-imidazo[4,5-c]pyridazine-3-carboxamide] returned an EC50 of 6.9 nM.

In turn, `Fc1cc(Cl)ccc1COc1cccc(N2CCN(Cc3nc4cc(-c5nnc(C(F)(F)F)[nH]5)cnc4n3C[C@@H]3CCO3)CC2)n1` [Compound 494a, 1-{6-[(4-chloro-2-fluorophenyl)methoxy]pyridin-2-yl}-4-[(3-{[(2S)-oxetan-2-yl]methyl}-6-[5-(trifluoromethyl)-4H-1,2,4-triazol-3-yl]-3H-imidazo[4,5-b]pyridin-2-yl)methyl]piperazine] gave an EC50 of 0.013 nM.

The molecule `Fc1cc(Cl)ccc1C1COc2cccc(C3CCN(Cc4nc5cc(-c6nnc(C(F)(F)F)[nH]6)nnc5n4C[C@@H]4CCO4)CC3)c2O1` (stereo partly drawn) [Compound 465a, 4-[3-(4-chloro-2-fluorophenyl)-2,3-dihydro-1,4-benzodioxin-5-yl]-1-[(7-{[(2S)-oxetan-2-yl]methyl}-3-[5-(trifluoromethyl)-4H-1,2,4-triazol-3-yl]-7H-imidazo[4,5-c]pyridazin-6-yl)methyl]piperidine] yielded an EC50 of 0.3 nM.

`COCCn1c(CN2CCC(c3cccc4c3OC(C)(c3ccc(Cl)cc3F)O4)CC2)nc2cc(-c3noc(=O)[nH]3)ccc21` (stereo not shown) [Compound 230a, 3-(2-((4-(2-(4-chloro-2-fluorophenyl)-2-methylbenzo[d][1,3]dioxol-4-yl)piperidin-1-yl)methyl)-1-(2-methoxyethyl)-1H-benzo[d]imidazol-5-yl)-1,2,4-oxadiazol-5(4H)-one] yielded an EC50 of 0.88 nM. This EC50 is about 2.9-fold higher than that of the molecule before.

In turn, `O=C(O)COc1ccc2c(c1)nc(CN1CCC(c3cccc(OCc4ccc(Cl)cc4F)n3)CC1)n2C[C@@H]1CCO1` [Compound 109a, (S)-2-((2-((4-(6-((4-chloro-2-fluorobenzyl)oxy)pyridin-2-yl)piperidin-1-yl)methyl)-1-(oxetan-2-ylmethyl)-1H-benzo[d]imidazol-5-yl)oxy)acetic acid] came in with a 50% effective concentration (EC50) of 13.2 nM. This EC50 is about 15-fold higher than that of the molecule before.

As to `COC(=O)Nc1ccc2c(c1)nc(CN1CCC(c3cccc(OCc4ccc(Cl)cc4F)n3)CC1)n2C[C@@H]1CCO1` [Compound 146a, methyl N-{2-[(4-{6-[(4-chloro-2-fluorophenyl)methoxy]pyridin-2-yl}piperidin-1-yl)methyl]-1-{[(2S)-oxetan-2-yl]methyl}-1H-1,3-benzodiazol-5-yl}carbamate], the EC50 was found to be 0.49 nM.

`COCCn1c(CN2CCC(c3cccc4c3OC(C)(c3ccc(Cl)cc3F)O4)CC2)nc2cc(-c3nnc(C(F)(F)F)[nH]3)cnc21` (stereo not shown) [Compound 402, 4-[2-(4-chloro-2-fluorophenyl)-2-methyl-2H-1,3-benzodioxol-4-yl]-1-{[3-(2-methoxyethyl)-6-[5-(trifluoromethyl)-4H-1,2,4-triazol-3-yl]-3H-imidazo[4,5-b]pyridin-2-yl]methyl}piperidine] yielded an EC50 of 0.75 nM.

Values taken from patent publication US20230391760A1, “HETEROCYCLIC GLP-1 AGONISTS” (Gasherbrum Bio, Inc., priority 2020, published 2023).
